ChEMBL document CHEMBL2157967, “Chemotherapy of leishmaniasis. Part XI: synthesis and bioevaluation of novel isoxazole containing heteroretinoid and its amide derivatives” (2012)
Active and inactive are the calls of the source. No cut-off for these calls is given here.

Test system: Leishmania donovani
Assay: Antileishmanial activity against Leishmania donovani MHOM/IN/80/Dd8 amastigotes infected in golden hamster assessed as inhibition of parasite growth at 50 mg/kg, ip for 5 days post infection measured on day 7 by Giemsa staining
Type: functional
Settings: for inhibition in vivo at 50 mg/kg: Leishmania donovani, MHOM/IN/80/Dd8, ip, read-out: GI

In the case of `CC1=CCCC(C)(C)C1/C=C/c1cc(C(=O)N2CCN(c3ccccc3)CC2)no1` (stereo not given), the “growth inhibition (GI)” value is reported as “inactive”.

`NC[C@@H]1O[C@H](O[C@H]2[C@@H](O)[C@H](O[C@@H]3[C@@H](O)[C@H](N)C[C@H](N)[C@H]3O[C@H]3O[C@H](CO)[C@@H](O)[C@H](O)[C@H]3N)O[C@@H]2CO)[C@H](N)[C@@H](O)[C@@H]1O` [PAROMOMYCIN] showed an inhibition in vivo at 50 mg/kg (route intraperitoneal) of 46.7%.

In the case of `CCOC(=O)c1cc(/C=C/C2C(C)=CCCC2(C)C)on1` (stereo not given), the inhibition in vivo at 50 mg/kg (route intraperitoneal) is reported as 76%.

`CC1=CCCC(C)(C)C1/C=C/c1cc(C(=O)NO)no1` (stereo not given) showed an inhibition in vivo at 50 mg/kg (route intraperitoneal) of 65%.

With `CC1=CCCC(C)(C)C1/C=C/c1cc(C(=O)N2CCOCC2)no1` (stereo not given) the “growth inhibition (GI)” value was “inactive”.

`CC1=CCCC(C)(C)C1/C=C/c1cc(C(=O)O)no1` (stereo not given) gave an inhibition in vivo at 50 mg/kg (route intraperitoneal) of 45%.

With Sodium stibogluconate the growth inhibition (GI) was 89%.

Compound `CC1=CCCC(C)(C)C1/C=C/c1cc(C(=O)NN)no1` (stereo not given) has an inhibition in vivo at 50 mg/kg (route intraperitoneal) of 50%.

In the case of `CC1=CCCC(C)(C)C1/C=C/c1cc(C(=O)Nc2ccccc2)no1` (stereo not given), the inhibition in vivo at 50 mg/kg (route intraperitoneal) is reported as 74%.

Work on `CC1=CCCC(C)(C)C1/C=C/c1cc(C(=O)NC2CCCCC2)no1` (stereo not given) yielded an inhibition in vivo at 50 mg/kg (route intraperitoneal) of 70%.

In the case of `CC1=CCCC(C)(C)C1/C=C/c1cc(C(=O)N[O-])no1.[Na+]` (stereo not given), the “growth inhibition (GI)” value (route intraperitoneal) is reported as 71%.

Compound `COc1ccc(NC(=O)c2cc(/C=C/C3C(C)=CCCC3(C)C)on2)cc1` (stereo not given) has an inhibition in vivo at 50 mg/kg (route intraperitoneal) of 58%.

`CC1=CCCC(C)(C)C1/C=C/c1cc(C(=O)[N-]N)no1.[Na+]` (stereo not given) was tested, and the “growth inhibition (GI)” value (route intraperitoneal) was 70%.

`CCOC(=O)C(=O)CC(=O)/C=C/C1C(C)=CCCC1(C)C` (stereo not given) was tested, and the “growth inhibition (GI)” value was “inactive”.

`CC1=CCCC(C)(C)C1/C=C/c1cc(C(=O)Nc2ccc(Cl)cc2)no1` (stereo not given) gave an inhibition in vivo at 50 mg/kg (route intraperitoneal) of 63%.
